Experimental data published in PubChem BioAssay (NCI).
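Results reflect a 48-hour exposure of cells in 96-well plates to compound at five concentrations. GI50 marks 50% less growth. TGI marks complete inhibition of growth.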

Tests used:
Assay in all cases: DTP human tumour cell line panel, 48 h
NCI-H23 lung = tested on: NCI-H23 lung
SF-268 CNS = tested on: SF-268 CNS
RPMI-8226 leukemia = tested on: RPMI-8226 leukemia
MDA-MB-231 breast = tested on: MDA-MB-231 breast
OVCAR-3 ovarian = tested on: OVCAR-3 ovarian
HCT-15 colon = tested on: HCT-15 colon
SW-620 colon = tested on: SW-620 colon
A549 NSCLC = tested on: A549 NSCLC
PC-3 prostate = tested on: PC-3 prostate
A498 renal = tested on: A498 renal
HL-60(TB) leukemia = tested on: HL-60(TB) leukemia
HT29 colon = tested on: HT29 colon
IGROV1 ovarian = tested on: IGROV1 ovarian
ACHN renal = tested on: ACHN renal
SK-MEL-2 melanoma = tested on: SK-MEL-2 melanoma
HOP-62 NSCLC = tested on: HOP-62 NSCLC
UACC-257 melanoma = tested on: UACC-257 melanoma
M14 melanoma = tested on: M14 melanoma
MCF7 breast = tested on: MCF7 breast
LOX IMVI melanoma = tested on: LOX IMVI melanoma
NCI-H460 lung = tested on: NCI-H460 lung
SK-MEL-28 melanoma = tested on: SK-MEL-28 melanoma
SNB-19 CNS = tested on: SNB-19 CNS
MALME-3M melanoma = tested on: MALME-3M melanoma
SF-295 CNS = tested on: SF-295 CNS
BT-549 breast = tested on: BT-549 breast
CCRF-CEM leukemia = tested on: CCRF-CEM leukemia
CAKI-1 renal = tested on: CAKI-1 renal
NCI-H226 lung = tested on: NCI-H226 lung
786-0 renal = tested on: 786-0 renal
DU-145 prostate = tested on: DU-145 prostate
SK-OV-3 ovarian = tested on: SK-OV-3 ovarian
UO-31 renal = tested on: UO-31 renal
SN12C renal = tested on: SN12C renal
T-47D breast = tested on: T-47D breast
OVCAR-8 ovarian = tested on: OVCAR-8 ovarian
HCC-2998 colon = tested on: HCC-2998 colon
HCT-116 colon = tested on: HCT-116 colon
SR leukemia = tested on: SR leukemia
SNB-75 CNS = tested on: SNB-75 CNS
OVCAR-5 ovarian = tested on: OVCAR-5 ovarian
NCI/ADR-RES ovarian = tested on: NCI/ADR-RES ovarian
COLO 205 colon = tested on: COLO 205 colon
SF-539 CNS = tested on: SF-539 CNS
EKVX NSCLC = tested on: EKVX NSCLC
RXF 393 renal = tested on: RXF 393 renal
UACC-62 melanoma = tested on: UACC-62 melanoma
HOP-92 NSCLC = tested on: HOP-92 NSCLC
MOLT-4 leukemia = tested on: MOLT-4 leukemia
OVCAR-4 ovarian = tested on: OVCAR-4 ovarian
NCI-H522 lung = tested on: NCI-H522 lung
MDA-MB-435 = tested on: MDA-MB-435
K-562 leukemia = tested on: K-562 leukemia
HS 578T breast = tested on: HS 578T breast
TK-10 renal = tested on: TK-10 renal
U251 CNS = tested on: U251 CNS
SK-MEL-5 melanoma = tested on: SK-MEL-5 melanoma
KM12 colon = tested on: KM12 colon

`Cc1c(-c2c(-c3ccc(F)o3)sc3ncnc(O[C@H](Cc4ccccc4OCc4ccnn4CC(F)(F)F)C(=O)O)c23)ccc(OCCN2CCN(C)CC2)c1Cl` was tested, and the GI50 (NCI-H23 lung) was 2.59 µM, the TGI (NCI-H23 lung) was 7.6 µM and the GI50 (SF-268 CNS) was 4.46 µM. For the same compound, the TGI (SF-268 CNS) was 11.4 µM, the GI50 (RPMI-8226 leukemia) was < 0.0147 µM and the TGI (RPMI-8226 leukemia) was 0.261 µM. It also gave a GI50 (MDA-MB-231 breast) of 3.8 µM, a TGI (MDA-MB-231 breast) of 7.84 µM and a GI50 (OVCAR-3 ovarian) of 3.82 µM. For the same compound, the TGI (OVCAR-3 ovarian) was 7.67 µM, the GI50 (HCT-15 colon) was 6.49 µM and the TGI (HCT-15 colon) was 20.1 µM. For the same compound, the GI50 (SW-620 colon) was 5.88 µM, the TGI (SW-620 colon) was 17.2 µM and the GI50 (A549 NSCLC) was 13.4 µM. The TGI (A549 NSCLC) was 26.9 µM, the GI50 (PC-3 prostate) was 3.16 µM and the TGI (PC-3 prostate) was 7.28 µM. For the same compound, the GI50 (A498 renal) was 3.03 µM, the TGI (A498 renal) was 9.6 µM and the GI50 (HL-60(TB) leukemia) was 0.0173 µM. The TGI (HL-60(TB) leukemia) was 0.195 µM, the GI50 (HT29 colon) was 4.54 µM and the TGI (HT29 colon) was 9.41 µM. For the same compound, the GI50 (IGROV1 ovarian) was 5.68 µM, the TGI (IGROV1 ovarian) was 14.8 µM and the GI50 (ACHN renal) was 6.46 µM. For the same compound, the TGI (ACHN renal) was 19 µM, the GI50 (SK-MEL-2 melanoma) was 0.03 µM and the TGI (SK-MEL-2 melanoma) was 0.097 µM. For the same compound, the GI50 (HOP-62 NSCLC) was 5.31 µM, the TGI (HOP-62 NSCLC) was 14.3 µM and the GI50 (UACC-257 melanoma) was 5.24 µM. It also gave a TGI (UACC-257 melanoma) of 12.9 µM, a GI50 (M14 melanoma) of 1.32 µM and a TGI (M14 melanoma) of 5.83 µM. For the same compound, the GI50 (MCF7 breast) was 0.375 µM, the TGI (MCF7 breast) was 4.61 µM and the GI50 (LOX IMVI melanoma) was 3.03 µM. It also gave a TGI (LOX IMVI melanoma) of 6.8 µM, a GI50 (NCI-H460 lung) of 4.17 µM and a TGI (NCI-H460 lung) of 10 µM. For the same compound, the GI50 (SK-MEL-28 melanoma) was 3.84 µM, the TGI (SK-MEL-28 melanoma) was 7.82 µM and the GI50 (SNB-19 CNS) was 4.7 µM. The TGI (SNB-19 CNS) was 12.9 µM, the GI50 (MALME-3M melanoma) was 3.37 µM and the TGI (MALME-3M melanoma) was 7.52 µM. The GI50 (SF-295 CNS) was 3.55 µM, the TGI (SF-295 CNS) was 7.55 µM and the GI50 (BT-549 breast) was 2.13 µM. The TGI (BT-549 breast) was 5.65 µM, the GI50 (CCRF-CEM leukemia) was 0.318 µM and the TGI (CCRF-CEM leukemia) was 9.49 µM. The GI50 (CAKI-1 renal) was 6.21 µM, the TGI (CAKI-1 renal) was 19.2 µM and the GI50 (NCI-H226 lung) was 5.89 µM. It also gave a TGI (NCI-H226 lung) of 15.5 µM, a GI50 (786-0 renal) of 3.97 µM and a TGI (786-0 renal) of 8.33 µM. It also gave a GI50 (DU-145 prostate) of 2.33 µM, a TGI (DU-145 prostate) of 5.36 µM and a GI50 (SK-OV-3 ovarian) of 5.74 µM. It also gave a TGI (SK-OV-3 ovarian) of 14.8 µM, a GI50 (UO-31 renal) of 6.25 µM and a TGI (UO-31 renal) of 18.6 µM. The GI50 (SN12C renal) was 4.05 µM, the TGI (SN12C renal) was 9.62 µM and the GI50 (T-47D breast) was 5.14 µM. For the same compound, the TGI (T-47D breast) was 16.3 µM, the GI50 (OVCAR-8 ovarian) was 5.82 µM and the TGI (OVCAR-8 ovarian) was 15.5 µM. For the same compound, the GI50 (HCC-2998 colon) was 3.48 µM, the TGI (HCC-2998 colon) was 7.57 µM and the GI50 (HCT-116 colon) was 3.9 µM. The TGI (HCT-116 colon) was 9.23 µM, the GI50 (SR leukemia) was 0.162 µM and the TGI (SR leukemia) was 2.01 µM. It also gave a GI50 (SNB-75 CNS) of 1.92 µM, a TGI (SNB-75 CNS) of 5.61 µM and a GI50 (OVCAR-5 ovarian) of 4.81 µM. For the same compound, the TGI (OVCAR-5 ovarian) was 14.8 µM, the GI50 (NCI/ADR-RES ovarian) was 15.5 µM and the TGI (NCI/ADR-RES ovarian) was 33.4 µM. It also gave a GI50 (COLO 205 colon) of 4.29 µM, a TGI (COLO 205 colon) of 9.26 µM and a GI50 (SF-539 CNS) of 2.89 µM. The TGI (SF-539 CNS) was 6.27 µM, the GI50 (EKVX NSCLC) was 4.12 µM and the TGI (EKVX NSCLC) was 14.2 µM. The GI50 (RXF 393 renal) was 2.77 µM, the TGI (RXF 393 renal) was 6.1 µM and the GI50 (UACC-62 melanoma) was 0.249 µM. It also gave a TGI (UACC-62 melanoma) of 3.13 µM, a GI50 (HOP-92 NSCLC) of 4.57 µM and a TGI (HOP-92 NSCLC) of 9.7 µM. It also gave a GI50 (MOLT-4 leukemia) of 0.108 µM, a TGI (MOLT-4 leukemia) of 4.71 µM and a GI50 (OVCAR-4 ovarian) of 4.86 µM. It also gave a TGI (OVCAR-4 ovarian) of 17.8 µM, a GI50 (NCI-H522 lung) of 0.148 µM and a TGI (NCI-H522 lung) of 4.58 µM. It also gave a GI50 (MDA-MB-435) of 1.89 µM, a TGI (MDA-MB-435) of 6.37 µM and a GI50 (K-562 leukemia) of 3.71 µM. For the same compound, the TGI (K-562 leukemia) was 14.5 µM, the GI50 (HS 578T breast) was 1.53 µM and the TGI (HS 578T breast) was 9.42 µM. It also gave a GI50 (TK-10 renal) of 5.31 µM, a TGI (TK-10 renal) of 16.2 µM and a GI50 (U251 CNS) of 4.59 µM. It also gave a TGI (U251 CNS) of 10.7 µM, a GI50 (SK-MEL-5 melanoma) of 3.13 µM and a TGI (SK-MEL-5 melanoma) of 6.25 µM. The GI50 (KM12 colon) was 4 µM and the TGI (KM12 colon) was 7.99 µM.
